Patent US20170368082A1, “FORMULATIONS OF BRINCIDOFOVIR” (priority 2016, published 2017)
Read-outs that look alike come from different tables or passages of the source.

Assay: Phase 2 toxicokinetics of brincidofovir and cidofovir in plasma
Assay type: in vivo, Sprague-Dawley CD rats
Details: plasma; for AUC(0-t) / Cmax / Tmax / concentration at 1 h / concentration at 2 h / concentration at 8 h / concentration at 24 h / concentration at 0 h: Sprague-Dawley CD, rat; for AUC(0-t) / Cmax / Tmax: iv, brincidofovir in plasma; for Tmax: read-out: Tmax; for concentration at 1 h / concentration at 2 h / concentration at 8 h / concentration at 24 h / concentration at 0 h: intravenous
Method: Plasma samples (108) were collected 2 hours following the initiation of dosing on Day 1 and Day 7 (Group 1), or at 1, 2, 8, and 24 hours following the initiation of dosing on Day 1, and prior to administration and at 2, 8, and 24 hours following the initiation of dosing on Day 7 (Groups 2 and 3), and analyzed to determine the concentrations of brincidofovir and the metabolite, cidofovir), by LC/MS/MS.
Approximately 0.4 mL of whole blood was obtained via the tail vein from each animal at each time point. Animals were not fasted prior to blood collection. Blood was collected into tubes containing K2EDTA anticoagulant and placed on wet ice in an upright position, per facility SOP prior to processing. Plasma was separated by centrifugation (10 minutes at approximately 2000 g, at approximately 2-8° C.). Approximately 0.10 mL of plasma was transferred into a single cryotube appropriately labeled with study number, animal number, time point, date of sampling and sample type. Remaining plasma was transferred into a second cryotube and retained as a backup sample. Plasma frozen at approximately −80±10° C. within approximately 2 hours after collection of each blood sample until analysis. Animals were euthanized (CO2 inhalation) after the final blood collection.
In general, TK parameters were estimated using mean plasma concentrations of brincidofovir and cidofovir derived from the composite blood sampling design using Phoenix WinNonLin (V 6.3).
A composite blood sampling design was used such that each rat was sampled twice per sampling day. Blood was collected via tail vein from unanesthetized animals into tubes containing anticoagulant and placed on wet ice in an upright position. Animals were not fasted prior to blood collection. Plasma was separated by centrifugation (for 10 minutes at approximately 2000 g, at approximately 2-8° C.), and transferred into individually labeled cryotubes. All cryotubes containing the collected plasma samples were appropriately labeled as to study number, animal number, time point, date of sampling and sample type. All plasma samples were obtained and frozen at approximately −80° C. (±10° C.) within approximately 2 hours after collection of each blood sample until analysis.
Rat plasma bioanalysis was conducted by Pyxant Laboratories. Plasma samples were analyzed for concentrations of brincidofovir and cidofovir using a method based upon protein precipitation extraction followed by LC-MS/MS analysis; calibration ranges for brincidofovir and cidofovir were 1.00-1500 ng/mL and 5.00-750 ng/mL, respectively, (Pyxant study number 3025) for a 50 μL aliquot of rat plasma. Sample analysis for ISR was not performed as part of this non-GLP study.
For the generation of Mean Profiles, all sample concentrations that were below the limit of quantitation (BLQ) were set to 0.
All pharmacokinetic parameter estimates were completed using a Non-Compartmental Model (Model 200-202 for IV infusion administration). The AUClast and AUCinf were calculated using the linear up log down trapezoidal rule.

[1] = female, 15 mg/kg, 15 mg/kg 2-hour IV infusion, Female rats, Day 1
[2] = female, 15 mg/kg, 15 mg/kg 2-hour IV infusion, Female rats, Day 7
[3] = male, 1 mg/kg, brincidofovir 1 mg/kg 2-h IV infusion, male rats, Day 1, BLQ imputed as zero, read-out: Imputed Concentration, Mean
[4] = male, 1 mg/kg, brincidofovir 1 mg/kg 2-h IV infusion, male rats, Day 1, BLQ imputed as zero, read-out: Imputed Concentration, individual animals
[5] = male, 1 mg/kg, 1 mg/kg 2-hour IV infusion, Male rats, Day 1
[6] = male, 1 mg/kg, 1 mg/kg 2-hour IV infusion, Male rats, Day 7
[7] = male, 15 mg/kg, 15 mg/kg 2-hour IV infusion, Male rats, Day 1
[8] = male, 15 mg/kg, 15 mg/kg 2-hour IV infusion, Male rats, Day 7

Work on `CCCCCCCCCCCCCCCCOCCCOP(=O)(O)CO[C@H](CO)Cn1ccc(N)nc1=O` [Brincidofovir] yielded an AUC(0-t) [1] of 7360 ng·h/mL, a Cmax [1] of 3470 ng/mL and a Tmax [1] of 1 h. It also gave an AUC(0-t) [2] of 3420 ng·h/mL, a Cmax [2] of 1660 ng/mL and a Tmax [2] of 2 h. The concentration at 1 h [3] was 227 ng/mL, the concentration at 1 h [4] was 156 ng/mL and the concentration at 2 h [3] was 235 ng/mL. The concentration at 2 h [4] was 220 ng/mL, the concentration at 8 h (male, 1 mg/kg, brincidofovir 1 mg/kg 2-h IV infusion, male rats, Day 1, 8 h, BLQ imputed as zero, read-out: Imputed Concentration, Mean) was 0 ng/mL and the concentration at 8 h (male, 1 mg/kg, brincidofovir 1 mg/kg 2-h IV infusion, male rats, Day 1, 8 h, BLQ imputed as zero, read-out: Imputed Concentration, individual animals) was 0 ng/mL. The concentration at 24 h (male, 1 mg/kg, brincidofovir 1 mg/kg 2-h IV infusion, male rats, Day 1, 24 h, BLQ imputed as zero, read-out: Imputed Concentration, Mean) was 0 ng/mL, the concentration at 24 h (male, 1 mg/kg, brincidofovir 1 mg/kg 2-h IV infusion, male rats, Day 1, 24 h, BLQ imputed as zero, read-out: Imputed Concentration, individual animals) was 0 ng/mL and the concentration at 0 h (male, 1 mg/kg, brincidofovir 1 mg/kg 2-h IV infusion, male rats, Day 7, 0 h, BLQ imputed as zero, read-out: Imputed Concentration, Mean) was 0 ng/mL. For the same compound, the concentration at 0 h (male, 1 mg/kg, brincidofovir 1 mg/kg 2-h IV infusion, male rats, Day 7, 0 h, BLQ imputed as zero, read-out: Imputed Concentration, individual animals) was 0 ng/mL, the concentration at 24 h (male, 15 mg/kg, brincidofovir 15 mg/kg, Male, Day 1, 24 h, read-out: brincidofovir Imputed Mean Concentration (IMC)) was 1.22 ng/mL and the concentration at 24 h (male, 15 mg/kg, brincidofovir 15 mg/kg, Male, Day 1, 24 h, read-out: brincidofovir Mean Concentration (MC)) was 1.22 ng/mL. For the same compound, the concentration at 8 h (male, 15 mg/kg, brincidofovir 15 mg/kg, Male, Day 7, 8 h, read-out: brincidofovir Imputed Mean Concentration (IMC)) was 8.72 ng/mL, the concentration at 24 h (male, 15 mg/kg, brincidofovir 15 mg/kg, Male, Day 7, 24 h, read-out: brincidofovir Imputed Mean Concentration (IMC)) was 1.45 ng/mL and the concentration at 24 h (male, 15 mg/kg, brincidofovir 15 mg/kg, Male, Day 7, 24 h, read-out: brincidofovir Mean Concentration (MC)) was 1.45 ng/mL. For the same compound, the concentration at 8 h (male, 15 mg/kg, 15 mg/kg, male rats, Day 1, 8 h, read-out: C (Concentration), individual animals) was 10.7 ng/mL, the concentration at 8 h (male, 15 mg/kg, 15 mg/kg, male rats, Day 1, 8 h, read-out: IC (Imputed Concentration), individual animals) was 10.7 ng/mL and the concentration at 24 h (male, 15 mg/kg, 15 mg/kg, male rats, Day 1, 24 h, read-out: C (Concentration), individual animals) was 1.2 ng/mL. For the same compound, the concentration at 24 h (male, 15 mg/kg, 15 mg/kg, male rats, Day 1, 24 h, read-out: IC (Imputed Concentration), individual animals) was 1.2 ng/mL, the concentration at 8 h (male, 15 mg/kg, 15 mg/kg, male rats, Day 7, 8 h, read-out: C (Concentration), individual animals) was 9.82 ng/mL and the concentration at 8 h (male, 15 mg/kg, 15 mg/kg, male rats, Day 7, 8 h, read-out: IC (Imputed Concentration), individual animals) was 9.82 ng/mL. It also gave a concentration at 24 h (male, 15 mg/kg, 15 mg/kg, male rats, Day 7, 24 h, read-out: C (Concentration), individual animals) of 1.85 ng/mL, a concentration at 24 h (male, 15 mg/kg, 15 mg/kg, male rats, Day 7, 24 h, read-out: IC (Imputed Concentration), individual animals) of 1.85 ng/mL and a Cmax [5] of 235 ng/mL. For the same compound, the Tmax [5] was 2 h, the Cmax [6] was 208 ng/mL and the Tmax [6] was 2 h. For the same compound, the AUC(0-t) [7] was 8780 ng·h/mL, the Cmax [7] was 4370 ng/mL and the Tmax [7] was 1 h. For the same compound, the AUC(0-t) [8] was 4090 ng·h/mL, the Cmax [8] was 1910 ng/mL and the Tmax [8] was 2 h. For the same compound, the “C (Concentration), individual animals” value (1 mg/kg, female rats, Day 1, 8 h, listed as BCV, 1 mg/kg) was “BLQ”, the “C (Concentration), individual animals” value (1 mg/kg, female rats, Day 1, 24 h) was “BLQ” and the “C (Concentration), individual animals” value (1 mg/kg, female rats, Day 7, 0 h) was “BLQ”. For the same compound, the “C (Concentration), individual animals” value (1 mg/kg, female rats, Day 7, 8 h, listed as BCV, 1 mg/kg) was “BLQ”, the “C (Concentration), individual animals” value (1 mg/kg, female rats, Day 7, 24 h) was “BLQ” and the “C (Concentration), individual animals” value (1 mg/kg, male rats, Day 1, 8 h) was “BLQ”. The “C (Concentration), individual animals” value (1 mg/kg, male rats, Day 1, 24 h) was “BLQ”, the “C (Concentration), individual animals” value (1 mg/kg, male rats, Day 7, 0 h) was “BLQ” and the “C (Concentration), individual animals” value (1 mg/kg, male rats, Day 7, 8 h) was “BLQ”. The “C (Concentration), individual animals” value (1 mg/kg, male rats, Day 7, 24 h) was “BLQ” and the “C (Concentration), individual animals” value (15 mg/kg, female rats, Day 7, 0 h) was “BLQ”.
